Molecular target: T1, Receptor-interacting serine/threonine-protein kinase 1 (Homo sapiens, UniProt Q13546)
T1 sequence (Q13546 whole entry): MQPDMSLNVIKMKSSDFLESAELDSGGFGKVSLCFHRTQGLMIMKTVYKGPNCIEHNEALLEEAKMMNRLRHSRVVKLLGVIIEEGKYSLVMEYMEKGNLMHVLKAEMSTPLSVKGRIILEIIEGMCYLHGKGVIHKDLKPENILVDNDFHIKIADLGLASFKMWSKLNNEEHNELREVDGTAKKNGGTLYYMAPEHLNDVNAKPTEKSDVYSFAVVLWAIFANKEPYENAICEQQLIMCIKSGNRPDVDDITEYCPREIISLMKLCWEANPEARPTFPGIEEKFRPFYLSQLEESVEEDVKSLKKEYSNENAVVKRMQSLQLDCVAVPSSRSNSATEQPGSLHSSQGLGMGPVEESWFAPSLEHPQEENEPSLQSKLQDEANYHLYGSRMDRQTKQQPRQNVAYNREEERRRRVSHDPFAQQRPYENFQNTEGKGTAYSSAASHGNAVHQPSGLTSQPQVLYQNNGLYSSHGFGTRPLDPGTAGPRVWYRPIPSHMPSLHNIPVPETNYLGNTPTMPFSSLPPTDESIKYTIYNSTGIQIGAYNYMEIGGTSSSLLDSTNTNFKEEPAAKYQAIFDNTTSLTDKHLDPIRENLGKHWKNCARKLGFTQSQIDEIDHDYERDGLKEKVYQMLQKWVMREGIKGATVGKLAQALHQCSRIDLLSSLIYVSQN
Assay: Biochemical Assay: The ability of the receptor interacting protein kinase (RIPK1) to catalyze the hydrolysis of adenosine-5′-triphosphate (ATP) is monitored using the Transcreener ADP (adenosine-5′-diphosphate) assay (BellBrook Labs).

CN1C(=O)[C@@H](NC(=O)c2n[nH]c3c2CC(C)(C)OC3)COc2ccccc21
Ki: 469 nM

Reference: ChEMBL document CHEMBL5728428, “Bicyclic lactams and methods of use thereof” (2021)
